Marks after values point to notes of the source that are not given here.
Experiments:
[1] = test system: model of L-NAME-induced NO deficiency; conditions: cited from earlier work
[2] = test system: male Wistar rats, model of arterial hypertension with endothelial dysfunction; experiment: Blood pressure and heart rate in rat model of arterial hypertension with endothelial dysfunction (L-NAME + 3% NaCl); format: in vivo; conditions: for DBP / HR / SBP: M ± m, n = 8
Experimental: (§1) In the model of arterial hypertension with endothelial dysfunction, endothelial NOS blocker N-nitro-L-arginine methyl ester (L-NAME) was administered intraperitoneally, 25 mg/kg, daily, for 7 days. The blocker was administered in 3% sodium chloride in the dose 1 ml/100 g of body weight. This combination of NO-synthase inhibitor with hypertonic solution provides RAAS activation, aldosterone discharge, retention of sodium and water, functional impairment of the vascular endothelium.
The experiments were performed with the use of 40 white male Wistar rats with the baseline body weight 220-240 g and 20 white virgin female rats 180-200 g. The animals were purchased from Rappolovo farm (Russian Academy of Medical Sciences, Saint-Petersburg). Besides mixed fodder, the rats received bread.
AS-6 substance (lot 080909) containing 101.0% of the active ingredient was used, according to the Protocol of Analysis No. 80-Pr, dated by 25 Sep. 2009 (Federal State Unitary Enterprise Special Technology and Construction Bureau “Tekhnolog”). The substance was used for preparation of solutions for daily oral administration based on the physiological saline.
The physiological saline was used as placebo. The solutions were administered daily through the atraumatic metallic feeding tube with fire-polished olive with the use of dosing syringe.
(§2) The animals were divided into the arms as follows: 1—intact animals; 2—control group, males (L-NAME+NaCl; physiological saline as placebo); 3—male rats that received AS-6 in the dose 0.5 mg/kg (Dose 1); 4—male rats that received AS-6 in the dose 5 mg/kg (Dose 2); 5—male rats that received AS-6 in the dose 10 mg/kg (Dose 3); 6—virgin female rats (only in the assessment of the sexual activity). Each group included 8 animals.
The measurement of the blood pressure in rats was performed with the use of the system for non-invasive blood pressure measurement for small animals within the complex Polygraph for electrophysiological studies (MP150WSW “BIOPAC Systems, Inc.”, USA.)
Rats were placed into special boxes. HR and BP (SBP and DBP) were recorded several minutes after the stabilization of the measured parameters. The parameters were measured on the tails with the use of piezoelectric probe and corresponding cuff, several minutes following animal placement on the thermostated sheet that maintained the temperature in the chambers within 26-27° C. The functional cardiovascular testing was performed before (at baseline) and after the administration of NOS inhibitor and at the end of treatment.

[3] = test system: endothelin-1 (ET-1); experiment: Serum endothelin-1 (ELISA) in the model of arterial hypertension with endothelial dysfunction; format: in vivo, rat; conditions: for ET-1: rat serum at the end of experiment, M ± m, n = 8
Experimental: as §1, §2
(§3) Biochemical parameters were assessed with the use of prearranged kits (USCN Life Science Inc., USA, Bender MedSystems GmbH, Austria, R&D Systems, USA). The measurement was performed with the use of multifunctional photometer Synergy-2 (BioTek Instruments, Inc., USA). All studies were conducted in compliance with current laboratory regulations.
(§4) The assessment of endothelin-1, vascular endothelial growth factor and nitric oxide levels was performed in the rats' serum at the end of experiment with the use of immuno-enzyme analysis and spectrophotometric analysis with species-specific (rat-specific) antibodies.
Quantitative measurement of endothelin-1 (ET-1) was performed with the use of ELISA with USCN Life Science Inc. (USA) kits. Serum samples of the experimental animals (50 mcL) and standards of known concentrations were introduced into the plate wells. Then, 50 mcL of detecting solution (reagent A) were introduced. After 1-hour incubation at 37° C., the wells were 3-fold rinsed, and 100 mcL of detecting solution (reagent B) were introduced into each well. Thereafter, the plate was incubated again at 37° C. for 30 minutes. The plate was rinsed with washing buffer 5 times, and 90 mcL of TMB substrate were introduced into each well. After 15-minute incubation at 37° C., 50 mcL of stop-solution were added. The reaction was read at 450 nm.

[4] = test system: vascular endothelial growth factor (VEGF); experiment: Serum vascular endothelial growth factor (ELISA) in the model of arterial hypertension with endothelial dysfunction; format: in vivo, rat; conditions: for VEGF: rat serum at the end of experiment, M ± m, n = 8
Experimental: as §1, §2, §3, §4
Quantitative measurement of vascular endothelial growth factor (VEGF) was performed with the use of ELISA with Bender MedSystems GmbH (Austria) kits. Calibration solution 100 mcL, serum samples of the experimental animals (50 mcL) and sample diluent (50 mcL) were introduced into the plate wells. Then, 50 mcL of biotin conjugate were added. After 2-hour incubation at 20° C., the wells were 6 time rinsed, and 100 mcL of streptavidin/horseradish peroxidase conjugate were introduced into each well. Thereafter, the plate was incubated again at 37° C. for 1 hour. The plate was 6 times rinsed with washing buffer, and 100 mcL of TMB substrate were introduced into each well. After 30-minute incubation at 20° C., 100 mcL of stop-solution were added. The reaction was read at 450 and 620 nm.

[5] = test system: nitric oxide (NO); experiment: Serum unbound nitric oxide (spectrophotometry, Griss reagent) in the model of arterial hypertension with endothelial dysfunction; format: in vivo, rat; conditions: for NO: rat serum at the end of experiment, M ± m, n = 8
Experimental: as §1, §2, §3, §4
Quantitative measurement of unbound nitric oxide was performed with the use spectrophotometry with R&D Systems kits (USA). The proteins were precipitated with zinc sulphate/sodium hydroxide. Serum supernatant samples of the experimental animals (50 mcL) and standards of known concentrations were introduced into the plate wells. Then, 50 mcL of sample diluent, Griss reagent 1 and Griss reagent 2 were added. The reaction was read at 540 and 690 nm after 10-minute incubation at 37° C.

[6] = test system: sexual behaviour in male rats; experiment: Sexual activity of male rats with a receptive female, 30-minute observation after the treatment cycle; format: in vivo, rat; design: key to Ejaculation rate / Muzzling, licking of the females: + - present; − - absent; conditions: for Intromission rate / Mounting rate: 30-minute period; for Intromission rate / Mounting rate / Intersession interval / Mounting latency: M ± m; for Intromission rate / Mounting rate / Intersession interval / Mounting latency / Ejaculation rate / Muzzling, licking of the females: n = 8
Experimental: as §1, §2
Testing of the animals' sexual activity was performed after the end of treatment cycle. Tested male was placed into the testing chamber (40×40×30 cm), 5 minutes before the presentation of sexually receptive female rat. One female was placed next to each male. The assessment of sexual behaviour was performed in the dark room at blind red light. The components of sexual activity were visually recorded during a 30-minute period: mounting latency (ML—interval from the female placing into the cage to the first male mounting) and the rate of mountings, intromissions and ejaculations.

[7] = test system: purified sGC obtained of the rabbit's lungs; conditions: AS-6 100 mcmol/L, in vitro; cited from earlier work
[8] = test system: sGC in the aortic tissue; conditions: aorta of Wistar rats; cited from earlier work
[9] = test system: conscious SHR and Wistar rats; conditions: cited from earlier work
[10] = 7-day-long administration of L-NAME; cited from earlier work
[11] = test system: NO-synthase; conditions: 7-day-long administration of L-NAME; cited from earlier work
[12] = Nicorandil (4 mg/kg) preconditioning
[13] = AS-6 0.5 mg/kg oral daily, After treatment (Day 14)
[14] = AS-6 5 mg/kg oral daily, After treatment (Day 14)
[15] = AS-6 10 mg/kg oral daily, After treatment (Day 14)
[16] = arm AS-6 0.5 mg/kg, Baseline (Day 0), before L-NAME and treatment
[17] = arm AS-6 0.5 mg/kg, Post-dose L-NAME (Day 7), before treatment
[18] = arm AS-6 5 mg/kg, Baseline (Day 0), before L-NAME and treatment
[19] = arm AS-6 5 mg/kg, Post-dose L-NAME (Day 7), before treatment
[20] = arm AS-6 10 mg/kg, Baseline (Day 0), before L-NAME and treatment
[21] = arm AS-6 10 mg/kg, Post-dose L-NAME (Day 7), before treatment

## O=C(NCCO[N+](=O)[O-])c1cccnc1 [Nicorandil]
[1]; [12]
  CRP: 0.6 ± 0.1 mg/dL
  NO level: 6.2±0.25 mcmol/L
  endothelial dysfunction ratio (EDR): 1.76±0.18 AU
  myocardium contractility during resistance testing: 77.2±8.3%

## [O-]c1n[n+](-c2nc[nH]n2)no1 [AS-6, 3-(3-[1,2,4]-triazolo)-oxatriazolium-5-olate]
[2]; AS-6 0.5 mg/kg
  effect on SBP and DBP levels: did not affect SBP or DBP levels
[2]; [13]
  DBP: 111.9 ± 5.2 mm Hg
  HR: 420.0 ± 13.7
  SBP: 153.1 ± 7.3 mm Hg
[2]; AS-6 5 mg/kg
  effect on SBP and DBP levels: decrease of elevated DBP and unchanged elevated SBP
[2]; [14]
  DBP: 111.5 ± 7.9 mm Hg
  HR: 435.9 ± 28.9
  SBP: 141.9 ± 7.1 mm Hg
[2]; [15]
  DBP: 102.0 ± 3.2 mm Hg
  HR: 404.4 ± 17.6
  SBP: 123.4 ± 4.2 mm Hg
[2]; AS-6 10 mg/kg, vs. baseline values and experimental model, p<0.05
  effect on blood pressure: normalization of the blood pressure
[2]; [16]
  DBP: 98.7 ± 2.2 mm Hg
  HR: 417.6 ± 17.6
  SBP: 126.2 ± 2.5 mm Hg
[2]; [17]
  DBP: 113.8 ± 4.6 mm Hg
  HR: 351.8 ± 8.7
  SBP: 145.0 ± 3.1 mm Hg
[2]; [18]
  DBP: 97.9 ± 3.2 mm Hg
  HR: 428.2 ± 22.1
  SBP: 123.8 ± 3.4 mm Hg
[2]; [19]
  DBP: 117.0 ± 4.4 mm Hg
  HR: 376.0 ± 15.3
  SBP: 148.6 ± 4.5 mm Hg
[2]; [20]
  DBP: 98.5 ± 4.7 mm Hg
  HR: 393.6 ± 19.1
  SBP: 130.5 ± 4.6 mm Hg
[2]; [21]
  DBP: 120.1 ± 5.0 mm Hg
  HR: 357.1 ± 14.8
  SBP: 149.1 ± 3.4 mm Hg
[2]; control or experimental arm
  changes of the heart rate: No significant changes of the heart rate
[2]; peak at 10 mg/kg after 7 days of treatment
  effect on blood pressure, dose dependence: dose-dependent decrease of blood pressure
[3]; most significant at 10 mg/kg, p=0.010 vs. control
  effect on endothelin-1 levels: significant favourable changes of endothelin-1 levels
[3]; AS-6 0.5 mg/kg
  ET-1: 2.48 ± 0.50 pg/mL
[3]; AS-6 5.0 mg/kg
  ET-1: 1.75 ± 0.48 pg/mL
[3]; AS-6 10.0 mg/kg
  ET-1: 0.78 ± 0.29 pg/mL
[4]; 10 mg/kg dose: p=0.116 vs. control
  effect on vascular endothelial growth factor production: dose-dependent trend to the normalization of vascular endothelial growth factor production
[4]; AS-6 0.5 mg/kg
  VEGF: 46.01 ± 2.42 pg/mL
[4]; AS-6 5.0 mg/kg
  VEGF: 79.49 ± 19.75 pg/mL
[4]; AS-6 10.0 mg/kg
  VEGF: 91.95 ± 21.84 pg/mL
[5]; exceeded the level of treatment-naive animals at 10 mg/kg
  effect on nitric oxide (NO) production: dose-dependent increase of nitric oxide (NO) production
[5]; AS-6 0.5 mg/kg
  NO: 8.83 ± 1.06 mcmol/l
[5]; AS-6 5.0 mg/kg
  NO: 10.75 ± 0.55^ mcmol/l
[5]; AS-6 10.0 mg/kg
  NO: 14.08 ± 1.25*^ mcmol/l
[6]; AS-6 10 mg/kg
  increase of number of animals with intromissions vs. control: 4 fold
  number of animals with intromissions: 50%
[6]; AS-6 0.5 and 5 mg/kg
  animals with increased mounting rate vs. control: 40%
  decrease of ML (mounting latency): 1.5 fold
  number of animals with intromissions: 25%
  rats with increased intromission rate: 25%
[6]; Azasidnon 0.5 mg/kg
  Intromission rate: 1.6 ± 1.4
  Mounting rate: 6.6 ± 2.8
  Intersession interval: 8.8 ± 0.9 min
  Mounting latency: 3.9 ± 0.9*^ min
  Ejaculation rate: −
  Muzzling, licking of the females: +
[6]; Azasidnon 5.0 mg/kg
  Intromission rate: 1.4 ± 1.1
  Mounting rate: 7.4 ± 3.1
  Intersession interval: 10.2 ± 2.2 min
  Mounting latency: 4.2 ± 1.9*^ min
  Ejaculation rate: −
  Muzzling, licking of the females: +
[6]; Azasidnon 10.0 mg/kg
  Intromission rate: 3.1 ± 1.5
  Mounting rate: 8.6 ± 2.6
  Intersession interval: 7.5 ± 1.9 min
  Mounting latency: 3.2 ± 1.4*^ min
  Ejaculation rate: −
  Muzzling, licking of the females: +
[6]; all doses
  influence on ejaculation: did not influence
[7]
  sGC activation compared to the basal activity: up to 30 fold
[8]
  activation of cGMP synthesis compared to baseline: up to 13 fold
[9]
  hypotensive effect: prolonged hypotensive effect

## COC(=O)[C@@H](N)CCCNC(=N)N[N+](=O)[O-].Cl [L-NAME, N-omega-nitro-L-arginine methyl ester hydrochloride]
[10]
  increase of endothelial dysfunction ratio: 5 fold
[11]
  mean diastolic BP: 146.0±4.2 mm Hg
  mean systolic blood pressure: 191.3±7.1 mm Hg

## COc1ccc(Cl)cc1C(=O)NCCc1ccc(S(=O)(=O)NC(=O)NC2CCCCC2)cc1 [Glibenclamide]
[1]; Glibenclamide 4 mg/kg, blockade of ATP-dependent potassium channels
  effect on protective effects of preconditioning: neutralized protective effects

— US9795593B2, “Use of 3-(3-[1,2,4]-triazolo)-oxatriazolium-5-olate for treating sexual disorders” (LIMITED LIABILITY COMPANY “KONSORTSIUM-PIK”, priority 2014, dated 2017)
